Key:
MDM2 protein [1] = target: T1, MDM2 protein (Homo sapiens, UniProt Q00987); assay: FP-based competitive binding assay
From the text: (§1) The reduction is proportional to dose. Thus, SP-141 can occupy the p53-binding site on MDM2 as illustrated by FIG. 6. […] Thus, SP-141 serves as a specific MDM2 inhibitor with a high binding capacity for the MDM2 protein.
(§2) FIG. 7A illustrates a chart illustrating % inhibition. This is illustrative of competitive binding to recombinant human MDM2 proteins using an FP-based binding assay. […] Similarly, FIG. 7B illustrates a chart or responses illustrative of competitive KD values of SP-141 to MDM2 as determined using the Biacore assay. The MDM2 protein was immobilized on a CM5 sensor chip. […] It is noteworthy that all the assays were performed in triplicate, and all the experiments were repeated at least three times.

MDM2 protein [2] = target: T1, MDM2 protein; assay: Biacore assay (MDM2 immobilized on CM5 sensor chip); details: read-out: KD for binding to the MDM2 protein
From the text: as §1, §2

GST-MDM2 = GST-MDM2 (Homo sapiens, UniProt Q00987); assay: Biotin-avidin pull-down assay with biotinylated SP-141; format: binding; details: biotin-SP-141 conjugate, avidin beads; purified GST negative control
From the text: As illustrated in FIGS. 2 and 3.
A western blot analysis is illustrated in FIG. 5. […] Purified GST was used as a negative control. The bound protein was detected using anti-MDM2 and anti-GST antibodies.
The bound protein was detected using anti-MDM2 antibody.

p53 KO MCF-7 cells = assay: Apoptosis assay; format: cell-based, human; details: 1-mM SP-141, 48 hours
Experimental: (§3) FIGS. 8-12 are presented toillustrate that SP-141 induces breast cancer cell death. In experiments conducted by the inventors, cells were exposed to various concentrations of SP-141 for 72 hours, using the MTT assay to evaluate the cell viability and IC50 value. FIG. 9 provides a photograph of such exposure for 24 hours using the colony formation assay. FIG. 10A illustrates a chart associated with 48 hours for the apoptosis assay and FIG. 10B illustrates a similar chart associated with 24 hours for the proliferation assay. FIG. 11 illustrates 24 hour for the cell cycle distribution assay. FIG. 12 illustrates a western blot analysis of the expression of MDM2 and proteins related to apoptosis and cell cycle arrest in human breast cancer cells. All these assays were performed in triplicate, and all the experiments were repeated at least three times (mean±s.e.m., n=9 for each data point, two-sided Student's t-test. *Po 0.01).

p53 mt MDA-MB-468 cells = assay: Apoptosis assay; format: cell-based, human; details: 1-mM SP-141, 48 hours
Experimental: as §3

p53 wt MCF-7 cells = assay: Apoptosis assay; format: cell-based, human; details: 1-mM SP-141, 48 hours
Experimental: as §3

[3] = test system: MCF-7 cells (both p53 wt and p53 KD); assay: Proliferation assay; format: cell-based, human; details: 0.5-mM concentration, 24 hours
Experimental: (§4) MDA-MB-468 cells are more sensitive to SP-141 treatment at higher concentrations than MCF-7 and MCF-7 p53 KD cells.
as §3

[4] = test system: human breast cancer cell lines; assay: Cell cycle distribution assay; format: cell-based; set-up: dose or concentration left out as unconfirmed; details: 24 hours
Experimental: as §4, §3

breast cancer cell lines = assay: Colony formation assay; format: cell-based, human; details: 24 hours exposure
Experimental: as §3

MDM2 protein [5] = assay: Western blot of MDM2 expression in breast cancer cells; format: cell-based, human; details: multiple tested cell lines
Experimental: SP-141 also effects MDM2 expression. […] In the MCF-7 (p53 wt) cells, the wild-type p53 protein level increased, in accordance with an expected inhibition of MDM2. […] SP-141 increases the expression of cleaved PARP and Bax and decreases the expression of Bcl-2 and Cyclin E in a p53-independent manner.
as §3

[6] = test system: MDM2 protein in MCF-7 and MDA-MB-468 cells; assay: MDM2 protein degradation (cycloheximide chase, western blot); format: cell-based, human; details: 0.5 mM SP-141 24 hours, then cycloheximide
Experimental: SP-141 can also induce MDM2 protein degradation. Specifically. SP-141 can induce MDM2 inhibition in vitro and in vivo. […] The p53 protein was stabilized in MCF-7 cells, but not in the p53 mt […] cells.
MCF-7 and MDA-MB-468 cells were treated with SP-141 (0.5 mM), and then exposed to cycloheximide (CHX, 15 mg ml 1), an inhibitor of protein synthesis. The graphs in FIG. 20 show the quantification of the western blot data. Cells were treated with SP-141 (0.5 mM) for 24 hours, and then exposed to a proteasome inhibitor, MG 132 (25 mM), for an additional 6 hours. The protein levels of MDM2 were detected with western blot analysis, as illustrated in FIG. 21. Further, cells were transfected with MDM2 and ubiquitin plasmids, followed by treatment with SP-141 for 24 hours. The cells were then exposed to MG132 (25 mM) for an additional 6 hours, and the lysates were subjected to immunoprecipitation with an MDM2 antibody. Cells were transfected with a wild-type MDM2 plasmid or mutant MDM2 plasmid without E3 ligase activity (C464A). After treatment with SP-141 for 24 hours, MDM2 levels were detected with western blot analysis, as illustrated in FIG. 23. Representative images of MDM2 immunofluorescence in control and SP-141 (1 mM)-treated cells are illustrated in FIG. 24. B-actin and DAPI were used as internal references. All the experiments were repeated three times.

MCF-7 xenograft tumors = assay: MCF-7 xenograft tumor model in nude mice; format: in vivo
Experimental: (§5) As evidence, SP-141 was administered to nude mice bearing MCF-7 and MDA-MB-468 xenograft tumors. SP-141 was administered by intraperitoneal (i.p.) injection at doses of 40 mg/kgn 1 per day for 42 and 30 days, respectively.
(§6) FIGS. 13-16 are presented to illustrate that. SP-141 suppresses breast xenograft tumor growth in vivo. FIGS. 13A and 13B illustrate tumor mass in nude mice bearing MCF-7 and MDA-MB-468, respectively. The xenograft tumors were treated with SP-141, which was administered by i.p. injection at 40 mg/kg 1 per day, 5 days per week for 42 and 30 days, respectively. FIGS. 14A and 14B illustrate the tumors after they were removed at the end of the experiments. The mice were also monitored for changes in body weight as a surrogate marker for toxicity in both the MCF-7 (as shown in FIG. 15A) and MDA-MB-468 (as shown if FIG. 15B) xenograft models. At the termination of the experiments, H&E staining of the paraffin sections of some organs from the mice bearing MCF-7 xenograft tumors was performed. (Mean±s.e.m., n>10 for each data point, two-sided Student's t-test, *P<0.01).

[7] = test system: MDA-MB-468 xenograft tumors; assay: MDA-MB-468 xenograft tumor model in nude mice; format: in vivo; details: i.p. 40 mg/kg per day
Experimental: as §5, §6

[8] = test system: MDA-MB-231 human breast cancer cells; assay: Wound healing assay (cell migration); format: cell-based; details: 0.1 or 0.2 mM SP-141, MDA-MB-231 cells
Experimental: SP-141 inhibits cell migration in vitro and in vivo. A crucial component of tumor cell invasion is cell migration. A wound healing assay can be used to investigate the effect of SP-141 on cancer cell motility, using MDA-MB-231 human breast cancer cells. The cells can be treated with the vehicle, or with 0.1 or 0.2 mM of SP-141, in order to evaluate the cell migration into the wound made in the cell monolayer.
(§7) FIGS. 28-30 are provided to illustrate that SP-141 inhibits cell metastasis in vitro and in vivo. MDA-MB-231 cells were grown to confluence in a six-well plate, illustrated in FIG. 28. A scratch was made at experimental time zero, and then the cells were exposed to various concentrations of SP-141. The wells were imaged at different time points. All the experiments were repeated at least three times. The effects of SP-141 on the expression of EMT-related proteins in MDA-MB-231 cells is shown in the western blot analysis provided in FIG. 29. About 1×10^ 6 MDA-MB-231-Luc cells were intravenously injected into a tail vein of nude mice. SP-141 was administered by i.p. injection at doses of 20 mg kg, 1 per day, 5 days per week for 2 weeks. The luciferase signals in the mice were detected and photographed using an MS in vivo image system on days 1, 8, and 15, as shown in FIG. 30.

[9] = test system: MDA-MB-231-Luc breast cancer cells; assay: Experimental metastasis assay; format: in vivo, nude mice; details: i.p. 20 mg/kg per day for 2 weeks; days 8 and 15
Experimental: To validate the anti-metastatic effects of SP-141 in vivo, an experimental metastasis assay can be performed. MDA-MB-231-Luc breast cancer cells can be intravenously injected into a tail vein of nulnu mice. The animals are randomly divided into a treatment group and a control group after cell injection. SP-141 can be administered by i.p injection at doses of 20 mg/kg, 1 per day for 2 weeks.
as §7

T1 sequence (Q00987 whole entry): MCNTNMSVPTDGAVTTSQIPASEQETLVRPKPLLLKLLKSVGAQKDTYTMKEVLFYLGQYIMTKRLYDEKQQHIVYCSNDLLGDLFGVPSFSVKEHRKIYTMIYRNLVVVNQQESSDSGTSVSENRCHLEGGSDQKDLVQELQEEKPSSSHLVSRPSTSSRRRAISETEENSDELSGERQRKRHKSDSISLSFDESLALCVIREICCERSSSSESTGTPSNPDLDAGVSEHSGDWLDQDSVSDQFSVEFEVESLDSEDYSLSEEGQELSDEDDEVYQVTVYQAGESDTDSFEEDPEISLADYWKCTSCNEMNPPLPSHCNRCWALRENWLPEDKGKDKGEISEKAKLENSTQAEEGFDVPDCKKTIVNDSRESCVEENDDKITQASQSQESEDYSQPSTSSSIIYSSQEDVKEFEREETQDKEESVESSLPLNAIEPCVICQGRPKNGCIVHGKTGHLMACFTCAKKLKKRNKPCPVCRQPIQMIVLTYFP
Chain of GST-MDM2 (Q00987 whole entry): as above

SMILES: COc1ccc2[nH]c3c(-c4cccc5ccccc45)nccc3c2c1 [SP-141, 6-methoxy-1-(naphthalen-1-yl)-9 H-pyrido[3,4-b]indole]
- Ki (MDM2 protein [1]): 28 ± 6 nM
- Kd (MDM2 protein [2]): 43 nM
- Binding to MDM2 versus GST (pull-down) (GST-MDM2): binds to MDM2, but not GST
- Increase of apoptotic index (p53 KO MCF-7 cells): 7 fold
- Increase of apoptotic index (p53 mt MDA-MB-468 cells): 11 fold
- Increase of apoptotic index (p53 wt MCF-7 cells): 14 fold
- Effect on cell proliferation [3]: significant decrease in proliferation
- Effect on cell cycle [4]: induces cell cycle arrest in the G2 phase
- Effect on cancer cell colony formation (breast cancer cell lines): inhibit cancer cell colony formation in a concentration-dependent manner
- MDM2 protein levels (MDM2 protein [5]): decrease in a concentration-dependent manner
- Degradation rate of the MDM2 protein [6]: increased the degradation rate of the MDM2 protein
- Host toxicity monitored by changes in body weight (MCF-7 xenograft tumors; MCF-7 model, i.p. 40 mg/kg per day, 42 days): no significant host toxicity
- Inhibition of xenograft tumor growth (MCF-7 xenograft tumors; MCF-7 xenograft, i.p. 40 mg/kg per day, day 42): 82%
- Organ abnormalities at necropsy / histological examination (MCF-7 xenograft tumors; mice bearing MCF-7 xenograft tumors, 40 mg/kg per day): no gross organ (liver, lung, kidney, spleen, heart or brain) abnormalities
- Host toxicity monitored by changes in body weight ([7]; MDA-MB-468 model, 30 days): no significant host toxicity
- Inhibition of xenograft tumor growth ([7]; MDA-MB-468 xenograft, day 30): 80%
- Effect on cell migration into the wound [8]: significantly decreased the cell migration
- Effect on metastasis (luciferase signals in lung tissues) [9]: decreases the metastasis of breast cancer cells

Reference: patent US10472355B2, “Cancer treatment utilizing SP-141 to bind with MDM2 and act as an inhibitor of MDM2 expression” (Texas Tech University System, priority 2014, dated 2019)
